Assay results from US7022513B2, “Cell based signal generation” (priority 1999, dated 2006).

Test system: strain CY7284
Assay: lacZ assay, Cp5766 in strain CY7284 with integrated LexAop-lacZ
Assay type: cell-based, yeast
Conditions: after 3 hours of treatment, data not shown
Experimental: In addition to transformation of the chimeric construct, the construct may also be integrated into the yeast strain. […] The lacZ assay was performed as described above.

a-factor was tested, and the “increase of β-galactosidase activities” value was 63 fold.
